The source made the active and inactive calls. The rule behind the calls is not given here.
Tested on: CCRIS mutagenicity, Ames/micronucleus/aberration tests
Test: CCRIS mutagenicity studies

Structure (SMILES): CC1(C)COC1=O
- mutagenic call (Test System: AMES SALMONELLA TYPHIMURIUM, Strain/Indicator: TA98, Metabolic Activation: HAMSTER, LIVER, S-9, AROCLOR 1254, Method: PREINCUBATION): inactive; negative
- mutagenic call (Test System: AMES SALMONELLA TYPHIMURIUM, Strain/Indicator: TA98, Metabolic Activation: HAMSTER, LIVER, S-9, AROCLOR 1254, Method: STANDARD PLATE): inactive; negative
- mutagenic call (Test System: AMES SALMONELLA TYPHIMURIUM, Strain/Indicator: TA98, Metabolic Activation: HAMSTER, LIVER, S-9, Method: PREINCUBATION): inactive; negative
- mutagenic call (Test System: AMES SALMONELLA TYPHIMURIUM, Strain/Indicator: TA98, Metabolic Activation: HAMSTER, LIVER, S-9, Method: STANDARD PLATE): inactive; negative
- mutagenic call (Test System: AMES SALMONELLA TYPHIMURIUM, Strain/Indicator: TA98, Metabolic Activation: MOUSE, LIVER, S-9, AROCLOR 1254, Method: PREINCUBATION): inactive; negative
- mutagenic call (Test System: AMES SALMONELLA TYPHIMURIUM, Strain/Indicator: TA98, Metabolic Activation: MOUSE, LIVER, S-9, AROCLOR 1254, Method: STANDARD PLATE): inactive; negative
- mutagenic call (Test System: AMES SALMONELLA TYPHIMURIUM, Strain/Indicator: TA98, Metabolic Activation: MOUSE, LIVER, S-9, Method: PREINCUBATION): inactive; negative
- mutagenic call (Test System: AMES SALMONELLA TYPHIMURIUM, Strain/Indicator: TA98, Metabolic Activation: MOUSE, LIVER, S-9, Method: STANDARD PLATE): inactive; negative
- mutagenic call (Test System: AMES SALMONELLA TYPHIMURIUM, Strain/Indicator: TA98, Metabolic Activation: NONE, Method: PREINCUBATION): inactive; negative
- mutagenic call (Test System: AMES SALMONELLA TYPHIMURIUM, Strain/Indicator: TA98, Metabolic Activation: NONE, Method: STANDARD PLATE): inactive; negative
- mutagenic call (Test System: AMES SALMONELLA TYPHIMURIUM, Strain/Indicator: TA98, Metabolic Activation: RAT, LIVER, S-9, AROCLOR 1254, Method: PREINCUBATION): inactive; negative
- mutagenic call (Test System: AMES SALMONELLA TYPHIMURIUM, Strain/Indicator: TA98, Metabolic Activation: RAT, LIVER, S-9, AROCLOR 1254, Method: STANDARD PLATE): inactive; negative
- mutagenic call (Test System: AMES SALMONELLA TYPHIMURIUM, Strain/Indicator: TA98, Metabolic Activation: RAT, LIVER, S-9, Method: PREINCUBATION): inactive; negative
- mutagenic call (Test System: AMES SALMONELLA TYPHIMURIUM, Strain/Indicator: TA98, Metabolic Activation: RAT, LIVER, S-9, Method: STANDARD PLATE): inactive; negative
- mutagenic call (Test System: AMES SALMONELLA TYPHIMURIUM, Strain/Indicator: TA100, Metabolic Activation: HAMSTER, LIVER, S-9, AROCLOR 1254, Method: STANDARD PLATE): active; positive
- mutagenic call (Test System: AMES SALMONELLA TYPHIMURIUM, Strain/Indicator: TA100, Metabolic Activation: HAMSTER, LIVER, S-9, Method: STANDARD PLATE): active; positive
- mutagenic call (Test System: AMES SALMONELLA TYPHIMURIUM, Strain/Indicator: TA100, Metabolic Activation: MOUSE, LIVER, S-9, AROCLOR 1254, Method: STANDARD PLATE): active; positive
- mutagenic call (Test System: AMES SALMONELLA TYPHIMURIUM, Strain/Indicator: TA100, Metabolic Activation: MOUSE, LIVER, S-9, Method: STANDARD PLATE): active; positive
- mutagenic call (Test System: AMES SALMONELLA TYPHIMURIUM, Strain/Indicator: TA100, Metabolic Activation: NONE, Method: STANDARD PLATE): active; positive
- mutagenic call (Test System: AMES SALMONELLA TYPHIMURIUM, Strain/Indicator: TA100, Metabolic Activation: RAT, LIVER, S-9, AROCLOR 1254, Method: STANDARD PLATE): active; positive
- mutagenic call (Test System: AMES SALMONELLA TYPHIMURIUM, Strain/Indicator: TA100, Metabolic Activation: RAT, LIVER, S-9, Method: STANDARD PLATE): active; positive
- mutagenic call (Test System: AMES SALMONELLA TYPHIMURIUM, Strain/Indicator: TA1535, Metabolic Activation: HAMSTER, LIVER, S-9, AROCLOR 1254, Method: PREINCUBATION): inactive; negative
- mutagenic call (Test System: AMES SALMONELLA TYPHIMURIUM, Strain/Indicator: TA1535, Metabolic Activation: HAMSTER, LIVER, S-9, Method: PREINCUBATION): inactive; negative
- mutagenic call (Test System: AMES SALMONELLA TYPHIMURIUM, Strain/Indicator: TA1535, Metabolic Activation: MOUSE, LIVER, S-9, AROCLOR 1254, Method: PREINCUBATION): inactive; negative
- mutagenic call (Test System: AMES SALMONELLA TYPHIMURIUM, Strain/Indicator: TA1535, Metabolic Activation: MOUSE, LIVER, S-9, Method: PREINCUBATION): inactive; negative
- mutagenic call (Test System: AMES SALMONELLA TYPHIMURIUM, Strain/Indicator: TA1535, Metabolic Activation: NONE, Method: PREINCUBATION): inactive; negative
- mutagenic call (Test System: AMES SALMONELLA TYPHIMURIUM, Strain/Indicator: TA1535, Metabolic Activation: RAT, LIVER, S-9, AROCLOR 1254, Method: PREINCUBATION): inactive; negative
- mutagenic call (Test System: AMES SALMONELLA TYPHIMURIUM, Strain/Indicator: TA1535, Metabolic Activation: RAT, LIVER, S-9, Method: PREINCUBATION): inactive; negative
- mutagenic call (Test System: AMES SALMONELLA TYPHIMURIUM, Strain/Indicator: TA1537, Metabolic Activation: HAMSTER, LIVER, S-9, AROCLOR 1254, Method: PREINCUBATION): inactive; negative
- mutagenic call (Test System: AMES SALMONELLA TYPHIMURIUM, Strain/Indicator: TA1537, Metabolic Activation: HAMSTER, LIVER, S-9, AROCLOR 1254, Method: STANDARD PLATE): inactive; negative
- mutagenic call (Test System: AMES SALMONELLA TYPHIMURIUM, Strain/Indicator: TA1537, Metabolic Activation: HAMSTER, LIVER, S-9, Method: PREINCUBATION): inactive; negative
- mutagenic call (Test System: AMES SALMONELLA TYPHIMURIUM, Strain/Indicator: TA1537, Metabolic Activation: HAMSTER, LIVER, S-9, Method: STANDARD PLATE): inactive; negative
- mutagenic call (Test System: AMES SALMONELLA TYPHIMURIUM, Strain/Indicator: TA1537, Metabolic Activation: MOUSE, LIVER, S-9, AROCLOR 1254, Method: PREINCUBATION): inactive; negative
- mutagenic call (Test System: AMES SALMONELLA TYPHIMURIUM, Strain/Indicator: TA1537, Metabolic Activation: MOUSE, LIVER, S-9, AROCLOR 1254, Method: STANDARD PLATE): inactive; negative
- mutagenic call (Test System: AMES SALMONELLA TYPHIMURIUM, Strain/Indicator: TA1537, Metabolic Activation: MOUSE, LIVER, S-9, Method: PREINCUBATION): inactive; negative
- mutagenic call (Test System: AMES SALMONELLA TYPHIMURIUM, Strain/Indicator: TA1537, Metabolic Activation: MOUSE, LIVER, S-9, Method: STANDARD PLATE): inactive; negative
- mutagenic call (Test System: AMES SALMONELLA TYPHIMURIUM, Strain/Indicator: TA1537, Metabolic Activation: NONE, Method: PREINCUBATION): inactive; negative
- mutagenic call (Test System: AMES SALMONELLA TYPHIMURIUM, Strain/Indicator: TA1537, Metabolic Activation: NONE, Method: STANDARD PLATE): inactive; negative
- mutagenic call (Test System: AMES SALMONELLA TYPHIMURIUM, Strain/Indicator: TA1537, Metabolic Activation: RAT, LIVER, S-9, AROCLOR 1254, Method: PREINCUBATION): inactive; negative
- mutagenic call (Test System: AMES SALMONELLA TYPHIMURIUM, Strain/Indicator: TA1537, Metabolic Activation: RAT, LIVER, S-9, AROCLOR 1254, Method: STANDARD PLATE): inactive; negative
- mutagenic call (Test System: AMES SALMONELLA TYPHIMURIUM, Strain/Indicator: TA1537, Metabolic Activation: RAT, LIVER, S-9, Method: PREINCUBATION): inactive; negative
- mutagenic call (Test System: AMES SALMONELLA TYPHIMURIUM, Strain/Indicator: TA1537, Metabolic Activation: RAT, LIVER, S-9, Method: STANDARD PLATE): inactive; negative
- mutagenic call (Test System: AMES SALMONELLA TYPHIMURIUM, Strain/Indicator: TA1538, Metabolic Activation: HAMSTER, LIVER, S-9, AROCLOR 1254, Method: PREINCUBATION): inactive; negative
- mutagenic call (Test System: AMES SALMONELLA TYPHIMURIUM, Strain/Indicator: TA1538, Metabolic Activation: HAMSTER, LIVER, S-9, AROCLOR 1254, Method: STANDARD PLATE): inactive; negative
- mutagenic call (Test System: AMES SALMONELLA TYPHIMURIUM, Strain/Indicator: TA1538, Metabolic Activation: HAMSTER, LIVER, S-9, Method: PREINCUBATION): inactive; negative
- mutagenic call (Test System: AMES SALMONELLA TYPHIMURIUM, Strain/Indicator: TA1538, Metabolic Activation: HAMSTER, LIVER, S-9, Method: STANDARD PLATE): inactive; negative
- mutagenic call (Test System: AMES SALMONELLA TYPHIMURIUM, Strain/Indicator: TA1538, Metabolic Activation: MOUSE, LIVER, S-9, AROCLOR 1254, Method: PREINCUBATION): inactive; negative
- mutagenic call (Test System: AMES SALMONELLA TYPHIMURIUM, Strain/Indicator: TA1538, Metabolic Activation: MOUSE, LIVER, S-9, AROCLOR 1254, Method: STANDARD PLATE): inactive; negative
- mutagenic call (Test System: AMES SALMONELLA TYPHIMURIUM, Strain/Indicator: TA1538, Metabolic Activation: MOUSE, LIVER, S-9, Method: PREINCUBATION): inactive; negative
- mutagenic call (Test System: AMES SALMONELLA TYPHIMURIUM, Strain/Indicator: TA1538, Metabolic Activation: MOUSE, LIVER, S-9, Method: STANDARD PLATE): inactive; negative
- mutagenic call (Test System: AMES SALMONELLA TYPHIMURIUM, Strain/Indicator: TA1538, Metabolic Activation: NONE, Method: PREINCUBATION): inactive; negative
- mutagenic call (Test System: AMES SALMONELLA TYPHIMURIUM, Strain/Indicator: TA1538, Metabolic Activation: NONE, Method: STANDARD PLATE): inactive; negative
- mutagenic call (Test System: AMES SALMONELLA TYPHIMURIUM, Strain/Indicator: TA1538, Metabolic Activation: RAT, LIVER, S-9, AROCLOR 1254, Method: PREINCUBATION): inactive; negative
- mutagenic call (Test System: AMES SALMONELLA TYPHIMURIUM, Strain/Indicator: TA1538, Metabolic Activation: RAT, LIVER, S-9, AROCLOR 1254, Method: STANDARD PLATE): inactive; negative
- mutagenic call (Test System: AMES SALMONELLA TYPHIMURIUM, Strain/Indicator: TA1538, Metabolic Activation: RAT, LIVER, S-9, Method: PREINCUBATION): inactive; negative
- mutagenic call (Test System: AMES SALMONELLA TYPHIMURIUM, Strain/Indicator: TA1538, Metabolic Activation: RAT, LIVER, S-9, Method: STANDARD PLATE): inactive; negative
- mutagenic call (Test System: E. COLI, Strain/Indicator: WP2 UVRA, Metabolic Activation: HAMSTER, LIVER, S-9, AROCLOR 1254, Method: PREINCUBATION): active; positive
- mutagenic call (Test System: E. COLI, Strain/Indicator: WP2 UVRA, Metabolic Activation: HAMSTER, LIVER, S-9, Method: PREINCUBATION): active; positive
- mutagenic call (Test System: E. COLI, Strain/Indicator: WP2 UVRA, Metabolic Activation: MOUSE, LIVER, S-9, AROCLOR 1254, Method: PREINCUBATION): active; positive
- mutagenic call (Test System: E. COLI, Strain/Indicator: WP2 UVRA, Metabolic Activation: NONE, Method: PREINCUBATION): active; positive
- mutagenic call (Test System: E. COLI, Strain/Indicator: WP2 UVRA, Metabolic Activation: RAT, LIVER, S-9, AROCLOR 1254, Method: PREINCUBATION): active; positive
- mutagenic call (Test System: E. COLI, Strain/Indicator: WP2 UVRA, Metabolic Activation: RAT, LIVER, S-9, Method: PREINCUBATION): active; positive

Reference: PubChem BioAssay AID1259407 (Chemical Carcinogenesis Research Information System (CCRIS), 2018)
